Reference: ChEMBL document CHEMBL4145564, “NAD(P)H:Quinone Oxidoreductase 1 (NQO1) as a Therapeutic and Diagnostic Target in Cancer” (J Med Chem, 2018)

Legend:
[1] = Half life in athymic nude mouse blood; assay type: ADME, organism-based
[2] = molecular target: T1, NAD(P)H dehydrogenase [quinone] 1 (Homo sapiens, UniProt P15559); assay: Inhibition of recombinant human NQO1 in presence of NADPH measured at 2 sec intervals for 5 mins
Homo sapiens = assay: Toxicity in iv dosed human assessed as maximum tolerated dose administered as infusion; assay type: organism-based; conditions: in vivo
[3] = molecular target: T2, NAD(P)H dehydrogenase [quinone] 1 (Rattus norvegicus, UniProt P05982); assay: Competitive binding affinity to rat liver NQO1 in presence of NADPH
T2 sequence (P05982 whole entry): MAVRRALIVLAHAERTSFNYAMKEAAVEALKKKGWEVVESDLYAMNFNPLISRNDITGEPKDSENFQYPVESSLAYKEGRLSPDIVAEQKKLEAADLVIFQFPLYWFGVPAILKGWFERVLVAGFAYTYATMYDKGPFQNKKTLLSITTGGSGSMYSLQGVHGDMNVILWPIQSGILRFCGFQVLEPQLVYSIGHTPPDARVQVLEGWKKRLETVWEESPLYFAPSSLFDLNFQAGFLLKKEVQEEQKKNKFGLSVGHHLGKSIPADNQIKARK

[4] = molecular target: T1, NAD(P)H dehydrogenase [quinone] 1; assay: Inactivation of recombinant human NQO1 expressed in Escherichia coli using DCPIP as substrate assessed as rate of reduction of DCPIP by spectrophotometric analysis
[5] = molecular target: T1, NAD(P)H dehydrogenase [quinone] 1; assay: Inhibition of recombinant human NQO1 expressed in Escherichia coli using DCPIP as substrate assessed as rate of reduction of DCPIP in presence of NADH after 5 mins by spectrophotometric analysis
[6] = molecular target: T1, NAD(P)H dehydrogenase [quinone] 1; assay: Inactivation of recombinant human NQO1 expressed in Escherichia coli using DCPIP as substrate assessed as partition ratio up to 200 nM by spectrophotometric analysis

CC1(C)CCC2=C(O1)c1ccccc1C(=O)C2=O [LAPACHONE]
half-life [1]: 24 min

S=C(Cc1ccc2c3c([nH]c2c1)CCCC3)N1CCOCC1
IC50 [2]: 1470 nM

CC1=C(N2CC2)C(=O)C(CO)=C(N2CC2)C1=O
MTD (Homo sapiens): 1430 ug/m2/day

O=c1oc2ccccc2c(O)c1Cc1c(O)c2ccccc2oc1=O [DICUMAROL]
Ki [3]: 1 to 10 nM

COC1=CC(=O)c2c(c(COc3ccc([N+](=O)[O-])cc3)c(C)n2C)C1=O
Kinact [4]: 0.78 min⁻¹
Ki [5]: 450 nM
Ratio [6]: 1.4

CN1C(=O)C(O)(CC(=O)c2cc3c4c(cccc4c2)CC3)c2ccccc21 (stereo not drawn)
IC50 [2]: 2040 nM
